Assay results reported in patent US20140140969A1, “METHODS AND COMPOSITIONS FOR MUSCULAR DYSTROPHIES” (Sangamo BioSciences, Inc., priority 2012, published 2014).

How the values were obtained:
human myoblasts = assay: In vitro selection of MGMT^P140K-2A-GFP gene-targeted myoblasts with BG/BCNU; assay type: cell-based
Source text: Consequently, we next verified whether expression from the integrated MGMT^P140K gene, along with the eGFP reporter gene to facilitate tracking of transduced cells, was sufficient to confer myoblasts protection against treatments with BG and BCNU (FIG. 4A). Using IDLV to deliver a MGMT^P140K-eGFP template DNA flanked by CCR5 homology arms, we obtained 40-50% gene addition in myoblasts in the absence of drug selection (FIG. 4B and C). However, to fully evaluate the selection potential of the BG/BCNU combination, we thought it would be more appropriate to work with a population containing a much lower level of gene addition. As such, we generated two populations of gene-targeted myoblasts containing either 3% or 35% of cells expressing the MGMT^P140K-2A-GFP gene using non-transduced cells for dilution. Both populations were exposed to 20 μM BG for one hour followed by increasing doses of BCNU (10, 25, 50 and 100 μM) for two hours (FIG. 4D).
Myoblasts were then allowed to recover for one week after which the proportion of eGFP positive cells was analyzed by flow cytometry, a procedure defined as one cycle of drug selection. […] After three cycles of selection using the same concentration of BCNU, up to 45% of the myoblasts were positive for eGFP, representing a 15-fold enrichment over the initial population. […] In comparison, when starting with a population containing already 35% of gene-targeted myoblasts, over 85% of the cells were expressing eGFP after only one cycle of selection using 50 μM of BCNU (FIG. 4D).
Four weeks post-transduction, gene modified myoblasts containing the MGMT^P140K-2A-GFP cassette inserted at the endogenous CCR5 locus were treated with 50 μM O6BG for two hours followed by increasing doses (range from 10-100 μM) of BCNU for one hour. Cells were then washed with PBS and allowed to proliferate in the presence of […] for seven days before being analyzed by FACS. Where indicated, this procedure was repeated up to two more times. Cells were maintained in the presence of O6BG during their post-treatment expansion to inactivate the endogenous MGMT gene.

[1] = system: CCR5-specific ZFN pair (exon 3) (artificial); assay: cell_activity; conditions: Cel-1 assay in human myoblasts; cleavage over 30%
[2] = starting population 3%, three cycles, 100 μM BCNU

## O=NN(CCCl)C(=O)NCCCl [BCNU, 1,3-bis(2-chloroethyl)-N-nitrosourea]
Human myoblasts; starting population 3%, beyond three cycles
  effect of additional cycle of selection: did not allow us to further increase the proportion of eGFP positive cells
Human myoblasts; starting population 3%, one cycle, 20 μM BG then 100 μM BCNU
  proportion of MGMT^P140K-2A-GFP expressing cells: 11%
Human myoblasts; [2]
  enrichment over the initial population: 15 fold
  proportion of myoblasts positive for eGFP: up to 45%
Human myoblasts; starting population 35%, one cycle, 50 μM BCNU
  proportion of cells expressing eGFP: over 85%

## CCR5 locus exon 3 ZFN target
[1]
  activity: > 30%
